Here are results for 10 compounds from patent publication US20070254910A1, “CHEMICAL COMPOUNDS” (priority 2004, published 2007).

This experiment deals with HIV. The experiment is described as follows: HOS HIV anti-infectivity assay (strain not stated). Conditions: Human immunodeficiency virus 1, HOS HIV anti-infectivity assay; read-out: Activity Level. It is filed as cell-based. As for the experimental part:
Compounds were profiled against two HIV-1 viruses, the M-tropic (CCR5 utilizing) Ba-L strain and the T-tropic (CXCR4 utilizing) IIIB strain. Both viruses were propagated in human peripheral blood lymphocytes. Compounds were tested for there ability to block infection of the HOS cell line (expressing hCXCR4/hCCR5/hCD4/pHIV-LTR-luciferase) by either HIV-1 Ba-L or HIV-1 IIIB. Compound cytotoxicity was also examined in the absence of virus addition.
HOS cells (expressing hCXCR4/hCCR5/hCD4/pHIV-LTR-luciferase) were harvested and diluted in Dulbeccos modified Eagles media supplemented with 2% FCS and non-essential amino acid to a concentration of 60,000 cells/ml. The cells were plated into 96-well plates (100 ul per well) and the plates were placed in a tissue culture incubator (37° C.; 5% CO2/95% air) for a period of 24 h.
Subsequently, 50 ul of the desired drug solution (4 times the final concentration) was added to each well and the plates were returned to the tissue culture incubator (37° C.; 5% CO2/95% air) for 1 h. Following this incubation 50 ul of diluted virus was added to each well (approximately 2 million RLU per well of virus). The plates were returned to the tissue culture incubator (37° C.; 5% CO2/95% air) and were incubated for a further 96 h.
Following this incubation the endpoint for the virally infected cultures was quantified following addition of Steady-Glo Luciferase assay system reagent (Promega, Madison, Wis.). Cell viability or non-infected cultures was measured using a CellTiter-Glo luminescent cell viability assay system (Promega, Madison, Wis.). All luminescent readouts are performed on a Topcount luminescence detector (Packard, Meridien, Conn.).
Regarding `CCN1CCN(c2cccc3nc(CN(C)[C@H]4CCCc5cccnc54)c(CO)n23)CC1` [Example 54, [5-(4-Ethyl-1-piperazinyl)-2-({methyl[(8S)-5,6,7,8-tetrahydro-8-quinolinyl]amino}methyl)imidazo[1,2-a]pyridin-3-yl]methanol], the IC50 was below 100 nM.
Next, `CN1CCN(c2cccc3nc(CN(Cc4ccc(C(F)(F)F)cc4)[C@H]4CCCc5cccnc54)c(CO)n23)CC1` [Example 42, {5-(4-Methyl-1-piperazinyl)-2-[((8S)-5,6,7,8-tetrahydro-8-quinolinyl{[4-(trifluoromethyl)phenyl]methyl}amino)methyl]imidazo[1,2-a]pyridin-3-yl}methanol]: below 100 nM; `CN1CCCN(c2cccc3nc(CN(C)[C@H]4CCCc5cccnc54)c(CO)n23)CC1` [Example 50, [5-(4-Methylhexahydro-1H-1,4-diazepin-1-yl)-2-({methyl[(8S)-5,6,7,8-tetrahydro-8-quinolinyl]amino}methyl)imidazo[1,2-a]pyridin-3-yl]methanol]: below 100 nM; `CN(C)[C@@H]1CCN(c2cccc3nc(CN(CC4CC4)[C@H]4CCCc5cccnc54)c(CO)n23)C1` [Example 72, {2-({(Cyclopropylmethyl)[(8S)-5,6,7,8-tetrahydro-8-quinolinyl]amino}methyl)-5-[(3R)-3-(dimethylamino)-1-pyrrolidinyl]imidazo[1,2-a]pyridin-3-yl}methanol]: below 100 nM.
Next, `CN1CCN(c2cccc3nc(CN(CC4CC4)[C@H]4CCCc5cccnc54)c(CO)n23)CC1` [Example 38, [2-({(Cyclopropylmethyl)[(8S)-5,6,7,8-tetrahydro-8-quinolinyl]amino}methyl)-5-(4-methyl-1-piperazinyl)imidazo[1,2-a]pyridin-3-yl]methanol]: below 100 nM.
Next, `CC(O)c1c(CN(C)[C@H]2CCCc3cccnc32)nc2cccc(N3CCN(C)CC3)n12` (stereo partly drawn) [Example 84, 1-[5-(4-Methyl-1-piperazinyl)-2-({methyl[(8S)-5,6,7,8-tetrahydro-8-quinolinyl]amino}methyl)imidazo[1,2-a]pyridin-3-yl]ethanol]: below 100 nM; `CN1CCN(c2cccc3nc(CN(C)C4CCCc5cccnc54)c(CO)n23)CC1` (stereo not shown) [Example 20, (5-(4-Methyl-1-piperazinyl)-2-{[methyl(5,6,7,8-tetrahydro-8-quinolinyl)amino]methyl}imidazo[1,2-a]pyridin-3-yl)methanol]: below 100 nM.
Consider `CN(Cc1nc2cccc(N3CCC(N)CC3)n2c1CO)[C@H]1CCCc2cccnc21` [Example 76, [5-(4-Amino-1-piperidinyl)-2-({methyl[(8S)-5,6,7,8-tetrahydro-8-quinolinyl]amino}methyl)imidazo[1,2-a]pyridin-3-yl]methanol], for which the IC50 was below 100 nM.
Next, `CCCN(Cc1nc2cccc(N3CCN(C)CC3)n2c1CO)[C@H]1CCCc2cccnc21` [Example 36, [5-(4-Methyl-1-piperazinyl)-2-({propyl[(8S)-5,6,7,8-tetrahydro-8-quinolinyl]amino}methyl)imidazo[1,2-a]pyridin-3-yl]methanol]: below 100 nM; `CCN(Cc1nc2cccc(N3CC[C@@H](N(C)C)C3)n2c1CO)[C@H]1CCCc2cccnc21` [Example 66, [5-[(3R)-3-(Dimethylamino)-1-pyrrolidinyl]-2-({ethyl[(8S)-5,6,7,8-tetrahydro-8-quinolinyl]amino}methyl)imidazo[1,2-a]pyridin-3-yl]methanol]: below 100 nM.
